# Experimental data taken from patent US10941158B2, “Pyrazole ACC inhibitors and uses thereof” (Gilead Apollo, LLC, priority 2015, dated 2021).
# Read-outs that look alike come from different tables or passages of the source.
# Experiments:
# [1] = molecular target: human (hACC2) ACC2 (Homo sapiens, UniProt O00763); assay: In vitro Acetyl-CoA Carboxylase (ACC) inhibition assay (ADP-Glo), hACC2; assay type: biochemical
# Experimental: The detailed procedure is as follows. […] 10 μL ADP glo reagent was added. […] 20 μL kinase detection reagent was added.
# “NA” stands for “not assayed.”
# [2] = test system: C. albicans ATCC 90028; assay: Anti-Fungal (Candida) Activity Assay, broth microtiter MIC; assay type: cell-based; conditions: read-out: MIC C. albicans ATCC 90028
# Experimental: (§1) Compounds of the present invention were evaluated in an Anti-Fungal Activity Assay. An exemplary procedure for the assay, which measures the susceptibility of various Candida species to anti-fungal compounds, follows. Compounds to be tested (including fluconazole and amphotericin B) were dissolved in DMSO to obtain a solution having a concentration of 1 mg/mL. […] All species were grown from frozen stock by directly plating on to freshly prepared Sabouraud Dextrose agar (BD, Difco) and incubated overnight in ambient air at 35° C. for 24 h. A direct suspension was prepared in RPMI 1640+MOPS (Lonza, Biowhittaker) by taking individual colonies from the overnight cultures using sterile swabs soaked in sterile saline. The concentration of the suspension was determined using pre-determined standard curves. […] Broth microtiter MIC challenge plates were prepared following CLSI guidelines (M27-A3, Vol. 28 No. 14). The original CLSI guidelines focused on reading Candida MICs after 48 h of incubation. As reading after only 24 h offers a clear advantage of patient care, QC limits are being established for all drugs at 24 h. That being said there are no known interpretive breakpoints for amphotericin B at 24 h and the current fluconazole interpretive breakpoints are based on a 48 h reading. The MIC for the test compounds were recorded at 48 h. All MIC determinations were achieved by visually comparing the growth found in the antibiotic challenged wells to that of the growth control.
# [3] = test system: C. krusei ATCC 6258; assay: as above; assay type: cell-based; conditions: Pichia kudriavzevii, read-out: MIC C. krusei ATCC 6258
# Experimental: as §1
# [4] = test system: C. parapsilosis ATCC 22019; assay: as above; assay type: cell-based; conditions: Lodderomyces parapsilosis, read-out: MIC C. parapsilosis ATCC 22019
# Experimental: as §1
# [5] = test system: Botrtyis cinerea (Bc); assay: Growth inhibition assay of fungal pathogens; assay type: cell-based; conditions: 48 h, read-out: Concentration at 90% Inhibition Bc
# Experimental: (§2) Compounds of the present invention were evaluated in a growth inhibition assay to determine the ability to control the growth of fungal pathogens, such as Botrtyis cinerea (Bc), Collectotrichum graminicola (Cg). Diplodia maydis (Dm), Fusarium moniliforme (Fm), Fusarium virguliforme (Fv), Phytophthora capsici (Pc), Rhizoctonia solani (Rs), and Septoria tritici (St). Compounds to be tested were dissolved in DMSO at 2.5 mg/ml to produce compound stock solutions (“stocks”). Stocks were diluted with DMSO by a five-fold dilution in a 96-well stock plate, and two sets of final concentrations of 50, 10, and 2 ppm or 2, 0.4, and 0.08 ppm were obtained in vitro. A set of positive controls was also prepared, with various concentrations of Soraphen (2, 0.4, and 0.08 ppm), Metalaxyl (1.1, 0.22, and 0.04 ppm), and Metconazole (2, 0.4, and 0.08 ppm or 0.2, 0.04, and 0.008 ppm) after the five-fold dilutions. Negative controls on each plate included 2% DMSO, water, and a blank (media+2% DMSO). Fungal spores were isolated from previously sub-cultured plates of Botrtyis cinerea (Bc). Collectotrichum graminicola (Cg). Diplodia maydis (Dm), Fusarium moniliforme (Fm), Fusarium virguliforme (Fv), Phytophthora capsici (Pc), and Septoria tritici (St). The isolated spores were diluted to individual concentrations with a 17% V8 liquid media. For Rhizoctonia solani (Rs) and Pythium irregulare, 1.5 mm mycelial plugs were used in place of spores and ¼ Potato Dextrose Broth (PDB) was used for dilution. The spore concentrations and plug sizes were based on growth curves generated at 48 hours for each pathogen. In a second 96-well plate, the spores or mycelial plugs, media, diluted compound solutions, and controls were combined. Once the compound was added, a true final concentration of compound in each well was measured by an OD600 reading, which adjusted for any compound precipitation that might have occurred in the well. Plate readings were repeated at both 24 and 48 hours. The blank negative control was used as a background subtraction. Additional visual ratings were performed at both 24 and 48 hours for checking on precipitation and confirming efficacy. Visual and OD600 ratings of the compounds at 48 hours were compared to the 2% DMSO negative control, and the percent of pathogen growth inhibition was determined based on those values.
# [6] = test system: Collectotrichum graminicola (Cg); assay: Growth inhibition assay of fungal pathogens; assay type: cell-based; conditions: 48 h, read-out: Concentration at 90% Inhibition Cg
# Experimental: as §2
# [7] = test system: Diplodia maydis (Dm); assay: Growth inhibition assay of fungal pathogens; assay type: cell-based; conditions: Stenocarpella maydis, 48 h, read-out: Concentration at 90% Inhibition Dm
# Experimental: as §2
# [8] = test system: Fusarium moniliforme (Fm); assay: Growth inhibition assay of fungal pathogens; assay type: cell-based; conditions: for IC90: Fusarium verticillioides, 48 h, read-out: Concentration at 90% Inhibition Fm
# Experimental: as §2
# [9] = test system: Fusarium virguliforme (Fv); assay: Growth inhibition assay of fungal pathogens; assay type: cell-based; conditions: 48 h
# Experimental: as §2
# [10] = test system: Phytophthora capsici (Pc); assay: Growth inhibition assay of fungal pathogens; assay type: cell-based; conditions: for IC90: Phytophthora capsici, read-out: Concentration at 90% Inhibition Pc
# Experimental: as §2
# [11] = test system: Rhizoctonia solani (Rs); assay: Growth inhibition assay of fungal pathogens; assay type: cell-based; conditions: 48 h, read-out: Concentration at 90% Inhibition Rs
# Experimental: as §2
# [12] = test system: Septoria tritici (St); assay: Growth inhibition assay of fungal pathogens; assay type: cell-based; conditions: for IC90: Zymoseptoria tritici, read-out: Concentration at 90% Inhibition St
# Experimental: as §2
# Chain of human (hACC2) ACC2 (O00763 whole entry): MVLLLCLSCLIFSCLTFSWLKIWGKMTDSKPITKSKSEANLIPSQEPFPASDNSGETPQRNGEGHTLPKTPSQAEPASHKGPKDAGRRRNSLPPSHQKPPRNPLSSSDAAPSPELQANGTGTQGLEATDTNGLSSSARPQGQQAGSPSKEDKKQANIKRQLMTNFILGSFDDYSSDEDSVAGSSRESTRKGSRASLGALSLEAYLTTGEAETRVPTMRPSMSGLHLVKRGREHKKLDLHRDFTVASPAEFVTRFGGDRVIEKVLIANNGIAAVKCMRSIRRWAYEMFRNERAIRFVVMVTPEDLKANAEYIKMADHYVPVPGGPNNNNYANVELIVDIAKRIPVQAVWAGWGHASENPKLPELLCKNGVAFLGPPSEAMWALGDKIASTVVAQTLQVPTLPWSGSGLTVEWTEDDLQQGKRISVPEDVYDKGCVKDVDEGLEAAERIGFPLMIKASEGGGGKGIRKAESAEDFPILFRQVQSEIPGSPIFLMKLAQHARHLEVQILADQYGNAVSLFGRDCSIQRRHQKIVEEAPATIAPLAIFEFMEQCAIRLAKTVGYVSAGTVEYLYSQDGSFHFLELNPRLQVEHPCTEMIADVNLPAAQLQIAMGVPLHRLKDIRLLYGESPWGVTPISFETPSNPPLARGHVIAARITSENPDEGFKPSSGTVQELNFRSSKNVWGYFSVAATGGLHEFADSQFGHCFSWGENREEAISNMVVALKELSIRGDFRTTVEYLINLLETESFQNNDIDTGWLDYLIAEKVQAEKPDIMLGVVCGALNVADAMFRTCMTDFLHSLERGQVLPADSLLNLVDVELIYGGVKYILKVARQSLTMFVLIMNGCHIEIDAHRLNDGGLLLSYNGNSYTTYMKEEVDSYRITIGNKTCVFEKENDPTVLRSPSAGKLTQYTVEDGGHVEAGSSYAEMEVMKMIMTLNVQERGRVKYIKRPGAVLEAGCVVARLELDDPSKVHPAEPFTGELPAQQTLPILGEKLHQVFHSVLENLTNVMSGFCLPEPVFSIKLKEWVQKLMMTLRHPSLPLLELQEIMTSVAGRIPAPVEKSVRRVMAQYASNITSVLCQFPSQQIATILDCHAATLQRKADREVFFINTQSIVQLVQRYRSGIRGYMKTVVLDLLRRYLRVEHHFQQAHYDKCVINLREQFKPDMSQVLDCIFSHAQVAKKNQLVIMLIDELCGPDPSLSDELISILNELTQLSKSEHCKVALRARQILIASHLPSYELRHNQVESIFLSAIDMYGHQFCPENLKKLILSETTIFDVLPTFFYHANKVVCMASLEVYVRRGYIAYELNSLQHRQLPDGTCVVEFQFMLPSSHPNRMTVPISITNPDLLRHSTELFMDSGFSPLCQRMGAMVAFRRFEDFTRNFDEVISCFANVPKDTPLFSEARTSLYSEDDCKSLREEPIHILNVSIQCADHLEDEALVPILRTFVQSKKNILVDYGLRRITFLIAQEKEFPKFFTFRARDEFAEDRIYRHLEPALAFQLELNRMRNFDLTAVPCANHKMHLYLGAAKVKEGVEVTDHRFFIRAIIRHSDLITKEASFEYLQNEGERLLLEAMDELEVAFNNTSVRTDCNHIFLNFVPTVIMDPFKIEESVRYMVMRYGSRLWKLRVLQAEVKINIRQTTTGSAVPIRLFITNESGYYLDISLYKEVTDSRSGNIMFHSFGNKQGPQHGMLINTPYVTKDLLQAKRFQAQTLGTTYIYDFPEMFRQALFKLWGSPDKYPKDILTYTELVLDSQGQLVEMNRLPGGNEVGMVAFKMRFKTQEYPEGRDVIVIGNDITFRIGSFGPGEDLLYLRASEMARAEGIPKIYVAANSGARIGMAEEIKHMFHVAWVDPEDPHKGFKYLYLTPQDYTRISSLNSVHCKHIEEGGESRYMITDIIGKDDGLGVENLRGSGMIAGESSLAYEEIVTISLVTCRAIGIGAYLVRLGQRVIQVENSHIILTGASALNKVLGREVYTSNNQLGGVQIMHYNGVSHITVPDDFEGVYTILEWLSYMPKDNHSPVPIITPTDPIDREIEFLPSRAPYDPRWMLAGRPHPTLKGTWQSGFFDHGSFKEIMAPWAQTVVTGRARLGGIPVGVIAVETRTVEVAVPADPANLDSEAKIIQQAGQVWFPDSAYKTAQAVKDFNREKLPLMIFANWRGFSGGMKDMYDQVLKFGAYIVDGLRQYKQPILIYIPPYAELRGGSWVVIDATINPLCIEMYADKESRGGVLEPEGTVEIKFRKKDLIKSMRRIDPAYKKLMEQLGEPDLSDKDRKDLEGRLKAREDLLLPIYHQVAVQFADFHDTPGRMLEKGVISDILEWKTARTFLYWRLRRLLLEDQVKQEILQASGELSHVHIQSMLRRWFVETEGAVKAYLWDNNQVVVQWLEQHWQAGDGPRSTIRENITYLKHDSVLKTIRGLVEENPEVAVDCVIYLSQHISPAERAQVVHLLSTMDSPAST
compound,measurement,setting,value
"COc1ccc(F)cc1[C@H](Cn1c(=O)n(C(C)(C)C(=O)NC(C)C)c(=O)c2c(C)c(-n3cccn3)sc21)OC1CCOCC1 [Compound I-6, (R)-2-(1-(2-(5-fluoro-2-methoxyphenyl)-2-((tetrahydro-2H-pyran-4-yl)oxy)ethyl)-5-methyl-2,4-dioxo-6-(1H-pyrazol-1-yl)-1,4-dihydrothieno[2,3-d]pyrimidin-3(2H)-yl)-N-isopropyl-2-methylpropanamide]",IC50,[1],10 to 40 nM
same,MIC,"[2]; ATCC90028, 48 h",0.25 to 1 µg/mL
same,MIC,"[3]; ATCC6258, 48 h",0.25 to 1 µg/mL
same,MIC,"[4]; ATCC22019, 48 h",1.1 to 2 µg/mL
same,IC90,[5]; Table 4a,2 µg/mL
same,IC90,[5]; Table 4b,2 µg/mL
same,IC90,[6]; Table 4a,10 µg/mL
same,IC90,[6]; Table 4b,2 µg/mL
same,IC90,[7]; Table 4a,10 µg/mL
same,IC90,[7]; Table 4b,2 µg/mL
same,IC90,[8],0.4 µg/mL
same,Concentration at 90% Inhibition Fm,"[8]; Table 4b, 48 hours",A (“A” provided a compound concentration of 0.4 ppm at 90% inhibition of fungal pathogens)
same,IC90,"[9]; read-out: Concentration at 90% Inhibition Fv, Table 4a, 48 hours",2 µg/mL
same,IC90,"[9]; read-out: Concentration at 90% Inhibition Fv, Table 4b, 48 hours",2 µg/mL
same,IC90,"[10]; 48 h, Table 4a",> 50 µg/mL
same,IC90,"[10]; 48 h, Table 4b",> 50 µg/mL
same,IC90,[11]; Table 4a,> 50 µg/mL
same,IC90,[11]; Table 4b,10 µg/mL
same,IC90,"[12]; 48 h, Table 4a",> 50 µg/mL
same,IC90,"[12]; 48 h, Table 4b",> 50 µg/mL
"COc1ccc(F)cc1[C@H](Cn1c(=O)n(C(C)(C)C(=O)N2CCCC2)c(=O)c2c(C)c(-n3cccn3)sc21)OC1CCOCC1 [Compound I-7, (R)-1-(2-(5-fluoro-2-methoxyphenyl)-2-((tetrahydro-2H-pyran-4-yl)oxy)ethyl)-5-methyl-3-(2-methyl-1-oxo-1-(pyrrolidin-1-yl)propan-2-yl)-6-(1H-pyrazol-1-yl)thieno[2,3-d]pyrimidine-2,4(1H,3H)-dione]",IC50,[1],3 to 10 nM
same,MIC,"[2]; ATCC90028, 3 replicates, MIC recorded at 48 h",1.1 to 2 µg/mL
same,MIC,"[3]; ATCC6258, 3 replicates, MIC recorded at 48 h",0.25 to 1 µg/mL
same,MIC,"[4]; ATCC22019, 3 replicates, MIC recorded at 48 h",1.1 to 2 µg/mL
same,IC90,[5]; Table 4a,2 µg/mL
same,IC90,[5]; Table 4b,2 µg/mL
same,IC90,[6]; Table 4a,0.4 µg/mL
same,IC90,[6]; Table 4b,0.4 µg/mL
same,IC90,[7]; Table 4a,10 µg/mL
same,IC90,[7]; Table 4b,2 µg/mL
same,IC90,"[8]; Table 4a, 48 hours",0.08 µg/mL
same,IC90,"[8]; Table 4b, 48 hours",0.08 µg/mL
same,IC90,"[9]; Table 4a, 48 hours, read-out: Concentration at 90% Inhibition Fv",> 50 µg/mL
same,IC90,"[9]; Table 4b, 48 hours, read-out: Concentration at 90% Inhibition Fv",10 µg/mL
same,IC90,"[10]; Table 4a, 48 hours",> 50 µg/mL
same,Concentration at 90% Inhibition Pc,"[10]; Table 4b, 48 hours",D (“D” provided a compound concentration of >50 ppm at 90% inhibition of fungal pathogens)
same,IC90,[11]; Table 4a,2 µg/mL
same,IC90,[11]; Table 4b,2 µg/mL
same,Concentration at 90% Inhibition St,"[12]; Table 4b, 48 hours",D (“D” provided a compound concentration of >50 ppm at 90% inhibition of fungal pathogens)
same,IC90,"[12]; Table 4a, 48 hours",> 50 µg/mL
